Broadly, the EC50 is the concentration that produces a half-maximal response.

Details in all cases: *Measured by radioligand binding
In one test the target is human A1 receptor (Homo sapiens (Human), UniProt P30542). Description: Radioligand binding assay, A1 ([3H]-DPCPX, CHO-K1 membranes). On the procedure: (§1) A filtration binding assay was performed for adenosine receptors A1, A2A, A2B and A3. Radioligand binding competition assay was done in duplicate in the wells of a 96-well plate (Master Block, Greiner, 786201) containing binding buffer, receptor membrane extracts, a fixed concentration of tracer, and test compound at increasing concentrations. In order to eliminate effect of buffer components, binding buffer was the same for all four receptors and contained: 50 mM Tris-HCl pH 7.4, 5 mM MgCl, 1 mM EDTA, 150 mM NaCl, 0.1% Na-azide, and 5 U/ml adenosine-deaminase. Nonspecific binding was minimized by co-incubation with 200-fold excess of cold competitor. In all radioligand binding experiments, the samples were incubated in a final volume of 0.1 ml of binding buffer for 60 minutes at 25° C. and then filtered over Unifilter plates (Perkin Elmer) pre-treated for 2 hours to limit tracer non-specific binding. Filters were washed five times with 0.5 ml of ice-cold washing buffer (50 mM Tris-HCl pH 7.4, 5 mM MgCl, 1 mM EDTA), and 50 μL of Microscint 20 (Perkin Elmer) were added to each filter. The plates were incubated 15 min at room temperature on an orbital shaker and then counted with a TopCount™ for 1 min/well.
Sequence of human A1 receptor (P30542 whole entry): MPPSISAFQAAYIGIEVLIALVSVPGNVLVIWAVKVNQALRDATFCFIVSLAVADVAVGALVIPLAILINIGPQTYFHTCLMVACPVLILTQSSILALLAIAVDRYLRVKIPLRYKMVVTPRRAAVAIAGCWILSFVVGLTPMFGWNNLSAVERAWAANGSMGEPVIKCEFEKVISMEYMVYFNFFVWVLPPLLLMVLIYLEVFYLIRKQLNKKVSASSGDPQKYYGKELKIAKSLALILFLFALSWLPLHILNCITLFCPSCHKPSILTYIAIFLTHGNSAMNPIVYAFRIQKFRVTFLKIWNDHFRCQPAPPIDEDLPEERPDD
For A1 receptor, the assay was performed with [3H]-DPCPX and membranes from CHO-Kl cells transfected with human A1 receptor (Euroscreen FAST-001B).

A further test addresses human A3 receptor (Homo sapiens (Human), UniProt P0DMS8). Description: Radioligand binding assay, A3 ([125I]-MECA, CHO-K1 membranes). The method, then: as §1
For A3 receptor, the assay was carried out with [125IJ-MECA and membranes from CHO-Kl cells transfected with human A3 receptor (Euroscreen FAST-004B).

Another test addresses human A2B receptor (Homo sapiens (Human), UniProt P29275). The experiment in a line: Radioligand binding assay, A2B ([3H]-DPCPX, HEK293 membranes). The method, then: as §1
For A2B receptor, the assay was carried with [3H]-DPCPX and membranes prepared from HEK293 cells transfected with human A2B receptor (Euroscreen FAST-003B).

The target in a further test is human A2A receptor (Homo sapiens (Human), UniProt P29274). Description: Radioligand binding assay, A2A ([3H]-NECA, HEK293 membranes). On the procedure: as §1
Sequence of human A2A receptor (P29274 whole entry): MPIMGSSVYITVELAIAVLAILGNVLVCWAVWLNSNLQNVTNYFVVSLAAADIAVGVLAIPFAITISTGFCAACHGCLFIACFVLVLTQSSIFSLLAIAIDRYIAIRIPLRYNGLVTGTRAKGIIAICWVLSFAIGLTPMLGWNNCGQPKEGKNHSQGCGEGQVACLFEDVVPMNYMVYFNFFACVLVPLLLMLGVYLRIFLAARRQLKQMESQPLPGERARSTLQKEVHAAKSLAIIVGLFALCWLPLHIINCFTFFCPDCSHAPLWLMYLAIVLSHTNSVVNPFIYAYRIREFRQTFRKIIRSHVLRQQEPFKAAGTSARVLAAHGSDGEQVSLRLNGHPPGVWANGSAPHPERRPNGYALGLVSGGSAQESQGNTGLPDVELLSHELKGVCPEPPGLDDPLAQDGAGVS
For A2A receptor, the assay was performed with [3H-NECA and membranes from HEK293 cells transfected with human A2A receptor (Euroscreen FAST-002B).

Sequence of human A3 receptor (P0DMS8 whole entry): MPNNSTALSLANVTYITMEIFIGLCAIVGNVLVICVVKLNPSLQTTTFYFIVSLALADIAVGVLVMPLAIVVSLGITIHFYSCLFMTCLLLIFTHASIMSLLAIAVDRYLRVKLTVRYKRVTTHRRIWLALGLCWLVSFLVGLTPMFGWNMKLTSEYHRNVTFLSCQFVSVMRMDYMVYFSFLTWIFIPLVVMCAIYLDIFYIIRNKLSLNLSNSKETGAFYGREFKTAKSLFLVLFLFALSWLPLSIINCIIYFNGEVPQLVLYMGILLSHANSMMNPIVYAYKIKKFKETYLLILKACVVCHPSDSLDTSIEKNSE
Sequence of human A2B receptor (P29275 whole entry): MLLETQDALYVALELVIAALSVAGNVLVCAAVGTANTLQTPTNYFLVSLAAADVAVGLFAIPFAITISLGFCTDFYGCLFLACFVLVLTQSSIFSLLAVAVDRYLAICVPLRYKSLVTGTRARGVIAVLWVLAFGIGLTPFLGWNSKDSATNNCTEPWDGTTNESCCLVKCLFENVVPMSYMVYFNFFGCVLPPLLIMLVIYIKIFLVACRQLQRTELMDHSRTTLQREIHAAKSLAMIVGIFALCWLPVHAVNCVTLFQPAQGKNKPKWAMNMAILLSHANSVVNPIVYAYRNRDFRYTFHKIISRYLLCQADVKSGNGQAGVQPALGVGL

`Fc1ccccc1-c1nc(Nc2n[nH]c(C3CCC3)n2)sc1-c1ccncc1F` [Compound 1, 5-Cyclobutyl-N-[4-(2-fluorophenyl)-5-(3-fluoropyridin-4-yl)-1,3-thiazol-2-yl]-1H-1,2,4-triazol-3-amine]: the half-maximal effective concentration (EC50) on human A1 receptor was under 5 nM; on human A3 receptor, over 10000 nM; on human A2B receptor it was 2.2 nM; on human A2A receptor it was over 10000 nM.
